Assay results as given in patent US12404262B2 (priority 2021, dated 2025).
Values after ≈ are worked out from the molar mass of the structure shown. Like-named read-outs stand apart in the source and are kept apart here.

Experiments:
[1] = physchem; details: 25 °C, thermodynamic from solid
[2] = Oral bioavailability PK in dog; type: in vivo; details: dog (Beagle), oral gavage, solution vehicle 5% ethanol, 20% propylene glycol, 75% water; based on exposure of Intermediate 5 in plasma
[3] = 0.1N HCl, 1.0% DMSO, 24-hour incubation at ambient temperature, maximum theoretical 100 μM, first value of the cell
[4] = 1×PBS buffer (pH 7.4), 1.0% DMSO, 24-hour incubation at ambient temperature, maximum theoretical 100 μM, second value of the cell

Dog F % (solution) [2] | Structure (SMILES) | pH 2 solubility (pH 2) | pH 7 solubility (pH 7.4) | solubility ([1]; fassif) | solubility ([1]; fessif) | pH 2 solubility [3] | pH 7 solubility [4]
– | CN(CCN(C)C(=O)N(c1nn(CC(F)(F)F)c2c(-c3ccc(C#CC(C)(C)S(C)(=O)=O)nc3[C@H](Cc3cc(F)cc(F)c3)NC(=O)Cn3nc(C(F)(F)F)c4c3C(F)(F)[C@@H]3C[C@H]43)ccc(Cl)c12)S(C)(=O)=O)C(=O)OCOP(=O)(O)O [Compound 83, (phosphonooxy)methyl (2-(3-(4-chloro-7-(2-((S)-1-(2-((3bS,4aR)-5,5-difluoro-3-(trifluoromethyl)-3b,4,4a,5-tetrahydro-1H-cyclopropa[3,4]cyclopenta[1,2-c]pyrazol-1-yl)acetamido)-2-(3,5-difluorophenyl)ethyl)-6-(3-methyl-3-(methylsulfonyl)but-1-yn-1-yl)pyridin-3-yl)-1-(2,2,2-trifluoroethyl)-1H-indazol-3-yl)-1-methyl-3-(methylsulfonyl)ureido)ethyl)(methyl)carbamate] | 1/61 μM | 1/61 μM | 1950 µg/mL (≈ 1580 µM) | 500 µg/mL (≈ 404 µM) | – | –
– | CC(C)(C#Cc1ccc(-c2ccc(Cl)c3c(N(C(=O)O[C@H](CNC(=O)OCOP(=O)(O)O)CC(=O)O)S(C)(=O)=O)nn(CC(F)(F)F)c23)c([C@H](Cc2cc(F)cc(F)c2)NC(=O)Cn2nc(C(F)(F)F)c3c2C(F)(F)[C@@H]2C[C@H]32)n1)S(C)(=O)=O [Compound 136, (S)-3-(((4-chloro-7-(2-((S)-1-(2-((3bS,4aR)-5,5-difluoro-3-(trifluoromethyl)-3b,4,4a,5-tetrahydro-1H-cyclopropa[3,4]cyclopenta[1,2-c]pyrazol-1-yl)acetamido)-2-(3,5-difluorophenyl)ethyl)-6-(3-methyl-3-(methylsulfonyl)but-1-yn-1-yl)pyridin-3-yl)-1-(2,2,2-trifluoroethyl)-1H-indazol-3-yl)(methylsulfonyl)carbamoyl)oxy)-4-((((phosphonooxy)methoxy)carbonyl)amino)butanoic acid] | 3/57 μM | 3/57 μM | 1490 µg/mL (≈ 1180 µM) | 2910 µg/mL (≈ 2300 µM) | – | –
– | C[C@@H](C(=O)O)N(CCOC(=O)N(c1nn(CC(F)(F)F)c2c(-c3ccc(C#CC(C)(C)S(C)(=O)=O)nc3[C@H](Cc3cc(F)cc(F)c3)NC(=O)Cn3nc(C(F)(F)F)c4c3C(F)(F)[C@@H]3C[C@H]43)ccc(Cl)c12)S(C)(=O)=O)C(=O)OCOP(=O)(O)O [Compound 132, N-(2-(((4-chloro-7-(2-((S)-1-(2-((3bS,4aR)-5,5-difluoro-3-(trifluoromethyl)-3b,4,4a,5-tetrahydro-1H-cyclopropa[3,4]cyclopenta[1,2-c]pyrazol-1-yl)acetamido)-2-(3,5-difluorophenyl)ethyl)-6-(3-methyl-3-(methylsulfonyl)but-1-yn-1-yl)pyridin-3-yl)-1-(2,2,2-trifluoroethyl)-1H-indazol-3-yl)(methylsulfonyl)carbamoyl)oxy)ethyl)-N-(((phosphonooxy)methoxy)carbonyl)-L-alanine] | – | – | 1630 µg/mL (≈ 1270 µM) | – | 1 μM | 79 μM
– | CN(CC(=O)OCOP(=O)(O)O)C(=O)N(c1nn(CC(F)(F)F)c2c(-c3ccc(C#CC(C)(C)S(C)(=O)=O)nc3[C@H](Cc3cc(F)cc(F)c3)NC(=O)Cn3nc(C(F)(F)F)c4c3C(F)(F)[C@@H]3C[C@H]43)ccc(Cl)c12)S(C)(=O)=O [Compound 84, (phosphonooxy)methyl N-((4-chloro-7-(2-((S)-1-(2-((3bS,4aR)-5,5-difluoro-3-(trifluoromethyl)-3b,4,4a,5-tetrahydro-1H-cyclopropa[3,4]cyclopenta[1,2-c]pyrazol-1-yl)acetamido)-2-(3,5-difluorophenyl)ethyl)-6-(3-methyl-3-(methylsulfonyl)but-1-yn-1-yl)pyridin-3-yl)-1-(2,2,2-trifluoroethyl)-1H-indazol-3-yl)(methylsulfonyl)carbamoyl)-N-methylglycinate] | – | – | 154 µg/mL (≈ 129 µM) | – | 5 μM | 16 μM
– | CC(C)(C#Cc1ccc(-c2ccc(Cl)c3c(N(C(=O)OCCN(CC(=O)O)C(=O)OCOP(=O)(O)O)S(C)(=O)=O)nn(CC(F)(F)F)c23)c([C@H](Cc2cc(F)cc(F)c2)NC(=O)Cn2nc(C(F)(F)F)c3c2C(F)(F)[C@@H]2C[C@H]32)n1)S(C)(=O)=O [Compound 134] | – | – | 2640 µg/mL (≈ 2080 µM) | – | 1 μM | 100 μM
– | CN(Cc1ccccc1OP(=O)(O)O)C(=O)N(c1nn(CC(F)(F)F)c2c(-c3ccc(C#CC(C)(C)S(C)(=O)=O)nc3[C@H](Cc3cc(F)cc(F)c3)NC(=O)Cn3nc(C(F)(F)F)c4c3C(F)(F)[C@@H]3C[C@H]43)ccc(Cl)c12)S(C)(=O)=O [Compound 67, 2-((3-(4-chloro-7-(2-((S)-1-(2-((3bS,4aR)-5,5-difluoro-3-(trifluoromethyl)-3b,4,4a,5-tetrahydro-1H-cyclopropa[3,4]cyclopenta[1,2-c]pyrazol-1-yl)acetamido)-2-(3,5-difluorophenyl)ethyl)-6-(3-methyl-3-(methylsulfonyl)but-1-yn-1-yl)pyridin-3-yl)-1-(2,2,2-trifluoroethyl)-1H-indazol-3-yl)-1-methyl-3-(methylsulfonyl)ureido)methyl)phenyl dihydrogen phosphate] | 2/79 μM | 2/79 μM | 536 µg/mL | 707 µg/mL | – | –
– | CC(C)(C#Cc1ccc(-c2ccc(Cl)c3c(N(C(=O)OCCNC(=O)OCOP(=O)(O)O)S(C)(=O)=O)nn(CC(F)(F)F)c23)c([C@H](Cc2cc(F)cc(F)c2)NC(=O)Cn2nc(C(F)(F)F)c3c2C(F)(F)[C@@H]2C[C@H]32)n1)S(C)(=O)=O [Compound 137, 2-((((phosphonooxy)methoxy)carbonyl)amino)ethyl (4-chloro-7-(2-((S)-1-(2-((3bS,4aR)-5,5-difluoro-3-(trifluoromethyl)-3b,4,4a,5-tetrahydro-1H-cyclopropa[3,4]cyclopenta[1,2-c]pyrazol-1-yl)acetamido)-2-(3,5-difluorophenyl)ethyl)-6-(3-methyl-3-(methylsulfonyl)but-1-yn-1-yl)pyridin-3-yl)-1-(2,2,2-trifluoroethyl)-1H-indazol-3-yl)(methylsulfonyl)carbamate] | – | – | 950 µg/mL (≈ 786 µM) | – | 1 μM | 85 μM
– | CN(CCOC(=O)N(c1nn(CC(F)(F)F)c2c(-c3ccc(C#CC(C)(C)S(C)(=O)=O)nc3[C@H](Cc3cc(F)cc(F)c3)NC(=O)Cn3nc(C(F)(F)F)c4c3C(F)(F)[C@@H]3C[C@H]43)ccc(Cl)c12)S(C)(=O)=O)C(=O)OCOP(=O)(O)O [Compound 133, (phosphonooxy)methyl (2-(((4-chloro-7-(2-((S)-1-(2-((3bS,4aR)-5,5-difluoro-3-(trifluoromethyl)-3b,4,4a,5-tetrahydro-1H-cyclopropa[3,4]cyclopenta[1,2-c]pyrazol-1-yl)acetamido)-2-(3,5-difluorophenyl)ethyl)-6-(3-methyl-3-(methylsulfonyl)but-1-yn-1-yl)pyridin-3-yl)-1-(2,2,2-trifluoroethyl)-1H-indazol-3-yl)(methylsulfonyl)carbamoyl)oxy)ethyl)(methyl)carbamate] | – | – | 194 µg/mL (≈ 159 µM) | – | 1 μM | 81 μM
– | CC(C)(C#Cc1ccc(-c2ccc(Cl)c3c(N(C(=O)OCCN(CCC(=O)O)C(=O)OCOP(=O)(O)O)S(C)(=O)=O)nn(CC(F)(F)F)c23)c([C@H](Cc2cc(F)cc(F)c2)NC(=O)Cn2nc(C(F)(F)F)c3c2C(F)(F)[C@@H]2C[C@H]32)n1)S(C)(=O)=O [Compound 135, 3-((2-(((4-chloro-7-(2-((S)-1-(2-((3bS,4aR)-5,5-difluoro-3-(trifluoromethyl)-3b,4,4a,5-tetrahydro-1H-cyclopropa[3,4]cyclopenta[1,2-c]pyrazol-1-yl)acetamido)-2-(3,5-difluorophenyl)ethyl)-6-(3-methyl-3-(methylsulfonyl)but-1-yn-1-yl)pyridin-3-yl)-1-(2,2,2-trifluoroethyl)-1H-indazol-3-yl)(methylsulfonyl)carbamoyl)oxy)ethyl)(((phosphonooxy)methoxy)carbonyl)amino)propa noic acid] | – | – | 1290 µg/mL (≈ 1010 µM) | – | 1 μM | 100 μM
– | CC(C)(C#Cc1ccc(-c2ccc(Cl)c3c(N(C(=O)NCCP(=O)(O)O)S(C)(=O)=O)nn(CC(F)(F)F)c23)c([C@H](Cc2cc(F)cc(F)c2)NC(=O)Cn2nc(C(F)(F)F)c3c2C(F)(F)[C@@H]2C[C@H]32)n1)S(C)(=O)=O [Compound 54, (2-(3-(4-chloro-7-(2-((S)-1-(2-((3bS,4aR)-5,5-difluoro-3-(trifluoromethyl)-3b,4,4a,5-tetrahydro-1H-cyclopropa[3,4]cyclopenta[1,2-c]pyrazol-1-yl)acetamido)-2-(3,5-difluorophenyl)ethyl)-6-(3-methyl-3-(methylsulfonyl)but-1-yn-1-yl)pyridin-3-yl)-1-(2,2,2-trifluoroethyl)-1H-indazol-3-yl)-3-(methylsulfonyl)ureido)ethyl)phosphonic acid] | – | – | 416 µg/mL (≈ 372 µM) | – | 1 μM | 41 μM
16% | CC(C)(C#Cc1ccc(-c2ccc(Cl)c3c(NS(C)(=O)=O)nn(CC(F)(F)F)c23)c([C@H](Cc2cc(F)cc(F)c2)NC(=O)Cn2nc(C(F)(F)F)c3c2C(F)(F)[C@@H]2C[C@H]32)n1)S(C)(=O)=O [Intermediate 5, N—((S)-1-(3-(4-chloro-3-(methylsulfonamido)-1-(2,2,2-trifluoroethyl)-1H-indazol-7-yl)-6-(3-methyl-3-(methylsulfonyl)but-1-yn-1-yl)pyridin-2-yl)-2-(3,5-difluorophenyl)ethyl)-2-((3bS,4aR)-5,5-difluoro-3-(trifluoromethyl)-3b,4,4a,5-tetrahydro-1H-cyclopropa[3,4]cyclopenta[1,2-c]pyrazol-1-yl)acetamide, reference compound] | – | – | – | – | 0.11 μM | 0.32 μM
